In publication PMC6675791, “Clozapine-dependent inhibition of EGF/neuregulin receptor (ErbB) kinases” (Translational Psychiatry, 2019):

Key:
Assay in all cases: in vitro kinase assay (ELISA, Tyr-Glu heteropolymer substrate, […] ATP, […] Triton X-100)
Assay type in all cases: biochemical
ErbB1 kinase = target: T1, ErbB1 kinase (Homo sapiens, UniProt P00533)
T1 construct: gene EGFR; recombinant truncated ErbB1 kinase (intracellular domain, lacking the extracellular domain)

ErbB2 kinase = target: T2, ErbB2 kinase (Homo sapiens, UniProt P04626)
T2 construct: recombinant truncated ErbB2 kinase (intracellular domain, lacking the extracellular domain)
T2 sequence (P04626 676-1255 limits assumed): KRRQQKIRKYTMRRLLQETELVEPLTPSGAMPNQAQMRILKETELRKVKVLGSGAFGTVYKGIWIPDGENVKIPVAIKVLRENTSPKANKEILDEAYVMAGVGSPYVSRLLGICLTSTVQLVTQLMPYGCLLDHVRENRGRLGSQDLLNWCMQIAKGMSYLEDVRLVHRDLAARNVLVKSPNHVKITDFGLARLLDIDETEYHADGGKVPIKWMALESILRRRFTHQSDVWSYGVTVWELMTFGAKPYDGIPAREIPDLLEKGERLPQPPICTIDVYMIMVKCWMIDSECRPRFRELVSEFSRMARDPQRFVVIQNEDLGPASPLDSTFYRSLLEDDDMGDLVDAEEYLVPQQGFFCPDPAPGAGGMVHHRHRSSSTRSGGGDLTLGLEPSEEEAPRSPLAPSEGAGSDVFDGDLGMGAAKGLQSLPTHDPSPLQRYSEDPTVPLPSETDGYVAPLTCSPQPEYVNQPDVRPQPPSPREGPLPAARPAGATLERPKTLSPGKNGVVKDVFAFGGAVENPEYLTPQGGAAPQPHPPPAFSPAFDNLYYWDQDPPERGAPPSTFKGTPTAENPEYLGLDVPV

ErbB4 kinase = target: T3, ErbB4 kinase (Homo sapiens, UniProt Q15303)
T3 construct: recombinant truncated ErbB4 kinase (intracellular domain, lacking the extracellular domain)
T3 sequence (Q15303 676-1308 limits assumed): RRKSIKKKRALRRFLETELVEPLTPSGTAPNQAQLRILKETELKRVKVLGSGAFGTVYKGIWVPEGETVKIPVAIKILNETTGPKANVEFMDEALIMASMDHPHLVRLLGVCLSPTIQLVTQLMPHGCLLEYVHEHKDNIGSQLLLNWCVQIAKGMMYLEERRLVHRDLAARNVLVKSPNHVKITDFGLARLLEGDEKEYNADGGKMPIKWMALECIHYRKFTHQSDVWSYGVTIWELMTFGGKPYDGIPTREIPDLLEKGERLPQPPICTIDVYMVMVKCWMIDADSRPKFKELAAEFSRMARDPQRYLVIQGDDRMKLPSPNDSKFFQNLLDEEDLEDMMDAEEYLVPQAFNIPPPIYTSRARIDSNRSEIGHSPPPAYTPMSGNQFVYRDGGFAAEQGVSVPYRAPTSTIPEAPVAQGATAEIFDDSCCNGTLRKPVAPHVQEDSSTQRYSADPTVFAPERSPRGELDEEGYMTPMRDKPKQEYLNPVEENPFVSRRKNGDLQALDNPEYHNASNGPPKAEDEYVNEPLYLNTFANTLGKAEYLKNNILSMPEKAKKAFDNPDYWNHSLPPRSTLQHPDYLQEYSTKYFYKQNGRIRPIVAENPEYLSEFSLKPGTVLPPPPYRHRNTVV

T1 sequence (P00533 669-1210 limits assumed): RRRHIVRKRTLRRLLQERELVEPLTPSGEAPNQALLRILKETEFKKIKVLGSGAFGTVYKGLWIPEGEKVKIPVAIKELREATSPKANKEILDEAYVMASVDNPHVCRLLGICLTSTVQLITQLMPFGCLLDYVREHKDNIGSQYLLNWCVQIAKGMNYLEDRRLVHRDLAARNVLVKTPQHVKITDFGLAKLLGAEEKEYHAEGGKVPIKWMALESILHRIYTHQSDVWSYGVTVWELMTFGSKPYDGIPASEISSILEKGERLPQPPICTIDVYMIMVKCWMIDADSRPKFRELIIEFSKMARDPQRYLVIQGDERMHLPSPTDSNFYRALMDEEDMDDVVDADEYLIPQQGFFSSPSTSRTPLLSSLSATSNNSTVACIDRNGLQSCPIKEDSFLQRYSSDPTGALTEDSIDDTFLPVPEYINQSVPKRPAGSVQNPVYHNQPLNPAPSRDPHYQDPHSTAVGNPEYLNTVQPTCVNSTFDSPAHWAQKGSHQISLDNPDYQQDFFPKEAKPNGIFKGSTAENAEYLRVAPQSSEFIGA

CN1CCN(C2=Nc3cc(Cl)ccc3Nc3ccccc32)CC1 [CLZ, clozapine]
in vitro kinase assay (ELISA, Tyr-Glu heteropolymer substrate, 4 mM ATP, 0.2% Tr) (ErbB1 kinase): 30 µM | in vitro kinase assay (ELISA, Tyr-Glu heteropolymer substrate, 4 mM ATP, 0.2% Tr) (ErbB2 kinase): 3 µM | in vitro kinase assay (ELISA, Tyr-Glu heteropolymer substrate, 4 mM ATP, 0.2% Tr) (ErbB4 kinase): 30 µM
